In patent US5792780A, “Azole compounds, their production and use” (Takeda Chemical Industries, Ltd., priority 1993, dated 1998):

Tests used:
Candida albicans TA = test: protective effect against experimental infection in mice (survival rate 7 days after infection); type: in vivo, Crj:CDF1 mice; settings: po, 168 h, Table 7, P.O. once immediately after infection, 0.2% CMC, survival 7 days after infection
Protocol: (§1) Test Method: Five-week-old Crj:CDF1 mice were inoculated with the minimum lethal dose of Candida albicans TA intravenously. The test compound was suspended in a solution of 0.2% or 0.5% sodium carboxymethylcellulose (CMC). The suspension was administered orally once immediately after infection. The activity was expressed in terms of ED50 values calculated by the Reed and Muench method from the survival rate 7 days after infection.
as §1, with “of” for “of 0.2% or”

Candida utilis IFO 0619 = test: growth inhibition zone, paper disc agar diffusion; type: cell-based; settings: Williopsis jadinii, IFO0619, 48 h, Medium A, 1000 μg/ml, 28° C., two days, read-out: Diameter of growth inhibition zone
Protocol: (§2) Evaluation of the antifungal activities of the compound of the present invention was conducted by the following method: a sheet of filter paper disc (manufactured by Toyo Seisakusho, 8 mm in diameter) soaked in a 1000 μg/ml solution of a compound of the present invention in methanol was placed on an agar plate containing various fungi, which was incubated at 28° C. for two days, and the diameter of the growth inhibition zone around the filter paper disc was measured. The following culture media were used:
(§3) A: yeast nitrogen base agar medium (pH 7.0)
(§4) B: peptone-yeast extract-glucose agar medium (pH 7.0)

[1] = system: Microsporum gypseum IFO 6076; test: growth inhibition zone, paper disc agar diffusion; type: cell-based; settings: Nannizzia gypsea, IFO6076, 48 h, Medium B, 1000 μg/ml, 28° C., two days, read-out: Diameter of growth inhibition zone
Protocol: as §2, §3, §4

[2] = system: Aspergillus fumigatus IFO 6344; test: growth inhibition zone, paper disc agar diffusion; type: cell-based; settings: IFO6344, 48 h, Medium A, 1000 μg/ml, 28° C., two days, read-out: Diameter of growth inhibition zone
Protocol: as §2, §3, §4

[3] = system: Trichophyton mentagrophytes IFO 7522; test: growth inhibition zone, paper disc agar diffusion; type: cell-based; settings: IFO7522, 48 h, Medium B, 1000 μg/ml, 28° C., two days, read-out: Diameter of growth inhibition zone
Protocol: as §2, §3, §4

[4] = system: Cryptococcus neoformans IFO 0410; test: growth inhibition zone, paper disc agar diffusion; type: cell-based; settings: IFO0410, 48 h, Medium A, 1000 μg/ml, 28° C., two days, read-out: Diameter of growth inhibition zone
Protocol: as §2, §3, §4

[5] = system: Trichophyton rubrum IFO 5467; test: growth inhibition zone, paper disc agar diffusion; type: cell-based; settings: IFO5467, 48 h, Medium B, 1000 μg/ml, 28° C., two days, read-out: Diameter of growth inhibition zone
Protocol: as §2, §3, §4

[6] = system: Aspergillus niger IFO 4066; test: growth inhibition zone, paper disc agar diffusion; type: cell-based; settings: IFO4066, 48 h, Medium A, 1000 μg/ml, 28° C., two days, read-out: Diameter of growth inhibition zone
Protocol: as §2, §3, §4

[7] = system: Candida albicans IFO 0583; test: growth inhibition zone, paper disc agar diffusion; type: cell-based; settings: IFO0583, 48 h, Table 5, Medium A, 1000 μg/ml, 28° C., two days, read-out: Diameter of growth inhibition zone
Protocol: as §2, §3, §4

Structure (SMILES) | ED50 (Candida albicans TA) [mg/kg] | zone of inhibition at 1000 µg/mL (Candida utilis IFO 0619) [mm] | zone of inhibition at 1000 µg/mL [1] [mm] | zone of inhibition at 1000 µg/mL [2] [mm] | zone of inhibition at 1000 µg/mL [3] [mm] | zone of inhibition at 1000 µg/mL [4] [mm] | zone of inhibition at 1000 µg/mL [5] [mm] | zone of inhibition at 1000 µg/mL [6] [mm] | zone of inhibition at 1000 µg/mL [7] [mm]
C[C@@H](N1CCN(c2ccc(OC(F)(F)F)cc2)C1=O)[C@](O)(Cn1cncn1)c1ccc(F)cc1F [Compound 1, 1-[(1R,2R)-2-(2,4-difluorophenyl)-2-hydroxy-1-methyl-3-(1H-1,2,4-triazol-1-yl)propyl]-3-(4-trifluoromethoxyphenyl)-2-imidazolidinone] | 1.4 | 25 | 49 | 31 | 48 | 27 | 47 | 24 | 36
C[C@@H](N1CCN(c2ccc(F)cc2F)C1=O)[C@](O)(Cn1cncn1)c1ccc(F)cc1F [Compound 2, 1-[(1R,2R)-2-(2,4-difluorophenyl)-2-hydroxy-1-methyl-3-(1H-1,2,4-triazol-1-yl)propyl]-3-(2,4-difluorophenyl)-2-imidazolidinone] | – | 29 | 41 | 30 | 40 | 31 | 50 | 27 | 45
C[C@@H](N1CCN(c2ccc(C(F)(F)F)cc2)C1=O)[C@](O)(Cn1cncn1)c1ccc(F)cc1F [Compound 4, 1-[(1R,2R)-2-(2,4-difluorophenyl)-2-hydroxy-1-methyl-3-(1H-1,2,4-triazol-1-yl)propyl]-3-(4-trifluoromethylphenyl)-2-imidazolidinone] | 0.65 | 31 | 42 | 34 | 39 | 29 | 43 | 26 | 41
